Results from the supplement of paper PMC13380429.
± gives the standard deviation of the averaged measurements.

Legend:
Details in all cases: 72 h
Caco-2 [1] = experiment: cell viability relative to DMSO; higher = less toxic
Calu-3 [2] = experiment: as above
U2OS [3] = experiment: as above
Vero E6 [4] = experiment: as above
Caco-2 [5] = experiment: relative viability EC50 (midpoint between 100% and the lowest measured viability); higher = less toxic
Calu-3 [6] = experiment: as above
U2OS [7] = experiment: as above
Vero E6 [8] = experiment: as above
Caco-2 [9] = experiment: drug sensitivity score (DSS) for viability; higher = more toxic; extreme values may be limits of the assay
Calu-3 [10] = experiment: as above
U2OS [11] = experiment: as above
Vero E6 [12] = experiment: as above
HepG2 [13] = experiment: cell viability relative to DMSO; higher = less toxic
HepG2 [14] = experiment: relative viability EC50 (midpoint between 100% and the lowest measured viability); higher = less toxic
HepG2 [15] = experiment: drug sensitivity score (DSS) for viability; higher = more toxic; extreme values may be limits of the assay

SMILES	cell viability (Caco-2 [1]; 1 nM) [%]	cell viability (Caco-2 [1]; 10 nM) [%]	cell viability (Caco-2 [1]; 100 nM) [%]	cell viability (Caco-2 [1]; 1000 nM) [%]	cell viability (Caco-2 [1]; 10000 nM) [%]	cell viability (Calu-3 [2]; 1 nM) [%]	cell viability (Calu-3 [2]; 10 nM) [%]	cell viability (Calu-3 [2]; 100 nM) [%]	cell viability (Calu-3 [2]; 1000 nM) [%]	cell viability (Calu-3 [2]; 10000 nM) [%]	cell viability (U2OS [3]; 1 nM) [%]	cell viability (U2OS [3]; 10 nM) [%]	cell viability (U2OS [3]; 100 nM) [%]	cell viability (U2OS [3]; 1000 nM) [%]	cell viability (U2OS [3]; 10000 nM) [%]	cell viability (Vero E6 [4]; 1 nM) [%]	cell viability (Vero E6 [4]; 10 nM) [%]	cell viability (Vero E6 [4]; 100 nM) [%]	cell viability (Vero E6 [4]; 1000 nM) [%]	cell viability (Vero E6 [4]; 10000 nM) [%]	relative viability EC50 (Caco-2 [5]) [µM]	relative viability EC50 (Calu-3 [6]) [µM]	relative viability EC50 (U2OS [7]) [µM]	relative viability EC50 (Vero E6 [8]) [µM]	drug sensitivity score (Caco-2 [9])	drug sensitivity score (Calu-3 [10])	drug sensitivity score (U2OS [11])	drug sensitivity score (Vero E6 [12])	cell viability (HepG2 [13]; 1 nM) [%]	cell viability (HepG2 [13]; 10 nM) [%]	cell viability (HepG2 [13]; 100 nM) [%]	cell viability (HepG2 [13]; 1000 nM) [%]	cell viability (HepG2 [13]; 10000 nM) [%]	relative viability EC50 (HepG2 [14]) [µM]	drug sensitivity score (HepG2 [15])
O=C(O)[C@H]1O[C@@H](Oc2cc3oc(-c4ccccc4)cc(=O)c3c(O)c2O)[C@H](O)[C@@H](O)[C@@H]1O [baicalin]	109	99	95.7	93.3	97.5	103	98.5	90.4	104	109	105	93.2	104	101	91.8	99.7	103	102	103	102	> 10	> 10	> 10	> 10	0	0	0	0	–	–	–	–	–	–	–
CN1CCc2cc3c(cc2[C@H]1[C@@H]1OC(=O)c2c1ccc1c2OCO1)OCO3 [bicuculline-(+)]	93.2	86.7	96.4	96.5	100	–	–	–	–	–	97.4	96.1	97.6	99.5	99.8	95.2	98.6	94.7	102	104	> 10	–	> 10	> 10	0	–	0	0	91.1	98.3	88.8	97.8	106	> 10	0
C[C@H](CCC(=O)O)[C@H]1CC[C@H]2[C@@H]3C(=O)C[C@@H]4CC(=O)CC[C@]4(C)[C@H]3CC(=O)[C@]12C [dehydrocholate-acid]	95.5 ± 1.1	84 ± 19	96.2 ± 5.6	94.2 ± 6.7	93.2 ± 16	–	–	–	–	–	101 ± 2.8	96.9 ± 2.8	98.3 ± 1.3	96 ± 2.3	97.6 ± 0.14	97.8 ± 0.57	102 ± 5.9	91.2 ± 6.6	94 ± 8	103 ± 7.6	> 10	–	> 10	> 10	0	–	0	0	95.8 ± 7.3	102 ± 5.5	95.05 ± 0.21	103 ± 1.1	102 ± 7.3	> 10	0
N=C(N)c1ccc(/N=N/Nc2ccc(C(=N)N)cc2)cc1 [diminazene-aceturate]	104	102	112	91.1	76.6	93.7	101	99.9	99.2	94.8	99	98.3	103	98.2	107	99.7	109	107	102	91.3	> 10	> 10	> 10	> 10	1.9	0	0	0	112	113	90.2	86.5	50.5	–	4.2
O=C(O)[C@H](O)[C@@H](O)[C@H](O[C@@H]1O[C@H](CO)[C@H](O)[C@H](O)[C@H]1O)[C@H](O)CO [maltobionic-acid]	89.3	101	85.6	97.9	115	103	106	101	100	99.7	93.6	103	97.8	102	101	94.3	89.8	94.4	88	101	> 10	> 10	> 10	> 10	0	0	0	0	–	–	–	–	–	–	–
COC(=O)Nc1nc2cc(C(=O)c3cccs3)ccc2[nH]1 [nocodazole]	102	105	73.6	54.1	40.6	103	105	73.8	65.4	54.9	105	110	70.4	46	24.3	105	108	64.8	30.7	26.8	0.174	–	0.252	0.103	11.8	10.6	13.6	17.9	114	103	85.6	40	40.2	0.159	13.3
